Measured values published in paper PMC6321166, “Screening of a Library of Oligosaccharides Targeting Lectin LecB of Pseudomonas Aeruginosa and Synthesis of High Affinity Oligoglycoclusters” (Molecules, 2018).

Columns and labels:
LecB = LecB (Pseudomonas aeruginosa, UniProt Q9HYN5); details: cited from earlier work
LecB (PAO1) = target: T1, LecB (PAO1) (Pseudomonas aeruginosa, UniProt Q9HYN5); assay: Competitive assay on microarray: glycans in solution compete with immobilized fucocluster F1 for Alexa 647-LecB; type: binding; set-up: key: A Grade A was given for oligosaccharides that were able to reduce 80 to 40% of the fluorescent signal at a concentration of 0.1 µM and to reduce it by more than 90% at concentrations of 1, 5 and 15 µM; Grade B indicated a decrease of fluorescence by 70% to 90% at 1 µM and more than 90% at 5 and 15 µM; Grade C corresponded to a decrease of 50 to 70% for 1 µM, around 80% for 5 µM and more than 90% at 15 µM; D indicated a decrease of less than 50% for 1 µM and 80% at 5 and 15 µM; When no inhibition was observed for the four concentrations tested, the grade was E; details: glycan at 0.1, 1.0, 5.0 and 15 µM, Alexa 647-LecB 0.12 µM
T1 construct: purchased Elicityl
Procedure: F1 was immobilized on a DNA chip, thanks to its DNA sequence. The distance between two F1 on the surface was estimated to be nearly 50 nm. Therefore, the lectin LecB can only bind to one F1 glycocluster at the time. The binding of immobilized F1 to LecB was competed with each of the 156 glycans at four different concentrations (0.1, 1.0, 5.0 and 15 µM). For each glycan and each concentration, the alexa 647-LecB fluorescent signal was recorded and averaged over 16 spots, leading to four-point competition histograms (Figure 2 and Figure S2). 100% signal (see Figure 2) corresponded to the fluorescent signal measured with a reference assay under which no competition could occur. Glycans able to compete with F1 to bind LecB lead to a decrease of the fluorescent signal. Therefore, for a given glycan concentration, strong binding glycans lead to stronger decrease of the fluorescent signal so to lower percentages. Accordingly, tested glycans were classified qualitatively into 5 groups (A, B, C, D and E) depending to their ability to reduce the measured fluorescent signal at the four different concentrations (Figure 2 and Table 1). Grade A are stronger competitor than grade B which are stronger than grade C, and so on. A Grade A was given for oligosaccharides that were able to reduce 80 to 40% of the fluorescent signal at a concentration of 0.1 µM and to reduce it by more than 90% at concentrations of 1, 5 and 15 µM. Grade B indicated a decrease of fluorescence by 70% to 90% at 1 µM and more than 90% at 5 and 15 µM. Grade C corresponded to a decrease of 50 to 70% for 1 µM, around 80% for 5 µM and more than 90% at 15 µM. D indicated a decrease of less than 50% for 1 µM and 80% at 5 and 15 µM.
Cy3-oligonucleotide oligoglycoclusters F1 [46] […] In each microwell, 1.5 µL of the oligoglycocluster mixture was incubated for DNA-directed immobilization (DDI) for 3 h at 37 °C in a water-saturated atmosphere. The slides were washed with saline sodium citrate (SSC) 2× SDS 0.1% at 51 °C for 1 min, SSC 2× for 5 min and rinsed with water.
A library of 156 sugars extracted from biomass or produced by bacterial fermentation (see Supporting Information) issued from the OligoTech® (Elicityl) was screened in a competitive assay. The binding of the 156 carbohydrates was screened toward the lectin LecB (PAO1, Elicityl). Lectin was labeled as previously described using the Alexa Fluor® 647 Microscale Protein Labelling Kit (Invitrogen).
On each slide, nine oligosaccharides and α-L-fucose (as a control) were tested. The inhibitory effect of each oligosaccharide was determined at four concentrations 0.1, 1.0, 5.0 and 15 µM and at 0.5, 2.5, 5.0 and 7.5 mg/L for polymers: Aliginate, galacturonan, galactomannan, glucomannan, mannan, ulvan, xylan and the glucan. To this end, the labeled LecB lectin (0.12 µM final concentration), BSA (2%, final concentration), CaCl2 (7.5 µM, final concentration) in PBS 1× (pH 7.4) were mixed with the solutions of oligosaccharides (from the OligoTech®, Crolles, France). For each concentration, 1.5 µL of the mixture was poured into a microwell, where F1 was previously immobilized. The slides were incubated for 3 h at 37 °C in a water-saturated atmosphere. In each microwell, a competition between the two types of glycoclusters (F1) and oligosaccharide occurred to bind LecB. The microarrays were washed with 0.02% PBS-Tween20 for 5 min at room temperature. The fluorescence signal emitted by the complex glycocluster/Alexa 647-lectin was detected and an average of the mean fluorescence signal of 16 spots per glycocluster was calculated. The percentage of inhibition was calculated as follows: The alexa-647 fluorescent signal for a given sugar was normalized by the Alexa 647 fluorescent signal measured at 0.1 µM of fucose.

LecB from PAO1 = details: read-out: dissociation constant (Kd); cited from earlier work
LecB from PA14 = target: LecB from PA14; set-up: method as in PMID 30155149; details: read-out: dissociation constant (Kd); cited from earlier work
LecB from PA7 = target: LecB from PA7; set-up: method as in PMID 27303392; details: read-out: dissociation constant (Kd); cited from earlier work

Chain of LecB (Q9HYN5 entry or part of it): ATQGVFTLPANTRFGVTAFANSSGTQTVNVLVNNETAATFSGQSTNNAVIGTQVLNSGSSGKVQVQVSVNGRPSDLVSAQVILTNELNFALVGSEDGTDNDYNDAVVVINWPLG
T1 sequence (Q9HYN5 entry or part of it): as above

Compound | Grade (ability to reduce the F1/LecB fluorescent signal) (LecB (PAO1)) | also measured
Nc1ccc(S(N)(=O)=O)cc1 [sulfonamide] | – | Kd (LecB; inhibitors of LecB): 3.3 µM
Neu5Acα2-3Galβ1-4(Fucα1-3)GlcNAcβ1-3Gal [Id. 29] | C (Grade C corresponded to a decrease of 50 to 70% for 1 µM, around 80% for 5 µM and more than 90% at 15 µM) | –
Galβ1-4(Fucα1-3)Glc [Id. 33] | B (Grade B indicated a decrease of fluorescence by 70% to 90% at 1 µM and more than 90% at 5 and 15 µM) | –
CO[C@@H]1O[C@@H](C)[C@@H](O)[C@@H](O)[C@@H]1O [FucOMe] | – | Kd (LecB from PAO1): 430 nM; Kd (LecB from PA14): 200 nM; Kd (LecB from PA7): 2200 nM
O=C[C@H](O)[C@@H](O)[C@@H](O)[C@H](O)CO [D-galactose] | – | recognition by LecB (LecB): not recognized
CC(=O)N[C@H]1[C@H](O[C@H]2[C@@H](O)[C@@H](CO)OC(O)[C@@H]2O)O[C@H](CO)[C@@H](O[C@@H]2O[C@H](CO)[C@H](O)[C@H](O)[C@H]2O)[C@@H]1O[C@@H]1O[C@@H](C)[C@@H](O)[C@@H](O)[C@@H]1O (stereo partly shown) [Id. 26, Galβ1-4(Fucα1-3)GlcNAcβ1-3Gal] | C (Grade C corresponded to a decrease of 50 to 70% for 1 µM, around 80% for 5 µM and more than 90% at 15 µM) | –
Galα1-3(Galβ1-4GlcNAcβ1-3)2Galβ1-4Glc [Id. 45] | E | –
GalNAcα1-3(Fucα1-2)Gal [Id. 15] | D (D indicated a decrease of less than 50% for 1 µM and 80% at 5 and 15 µM) | –
Fucα1-2Galβ1-3(Fucα1-4)GlcNAcβ1-3Gal [Id. 32] | C (Grade C corresponded to a decrease of 50 to 70% for 1 µM, around 80% for 5 µM and more than 90% at 15 µM) | –
OC[C@H]1OC(O)[C@@H](O)[C@@H](O)[C@@H]1O (stereo partly drawn) [D-mannose] | – | interaction with LecB, times weaker than L-fucose (LecB): 25 times
CC(=O)N[C@H]1[C@H](O[C@H]2[C@@H](O)[C@@H](CO)OC(O)[C@@H]2O)O[C@H](CO)[C@@H](O[C@@H]2O[C@@H](C)[C@@H](O)[C@@H](O)[C@@H]2O)[C@@H]1O[C@@H]1O[C@H](CO)[C@H](O)[C@H](O)[C@H]1O (stereo partly shown) [Id. 30, Galβ1-3(Fucα1-4)GlcNAcβ1-3Gal] | A (A Grade A was given for oligosaccharides that were able to reduce 80 to 40% of the fluorescent signal at a concentration of 0.1 µM and to reduce it by more than 90% at concentrations of 1, 5 and 15 µM) | –
